Experiment [1] has as its target human CB2 receptor (CNR2) (Homo sapiens (Human), UniProt P34972). Description: Radioligand binding assay ([3H]-CP-55,940), membranes of HEK cells expressing human CNR2. The following applies: 2.6 nM [3H]-CP-55,940, HEK cell membranes, 1 h at 30° C. On the procedure: (§1) Radioligand Binding Assay
(§2) The affinity of the compounds of the invention for cannabinoid receptors was determined using recommended amounts of membrane preparations (PerkinElmer) of human embryonic kidney (HEK) cells expressing the human CNR1 or CNR2 receptors in conjunction with 1.5 or 2.6 nM [3H]-CP-55,940 (Perkin Elmer) as radioligand, respectively. Binding was performed in binding buffer (50 mM Tris, 5 mM MgCl2, 2.5 mM EDTA, and 0.5% (wt/vol) fatty acid free BSA, pH 7.4 for CB1 receptor and 50 mM Tris, 5 mM MgCl2, 2.5 mM EGTA, and 0.1% (wt/vol) fatty acid free BSA, pH 7.4 for CB2 receptor) in a total volume of 0.2 mL for 1 h at 30° C. shaking. The reaction was terminated by rapid filtration through microfiltration plates coated with 0.5% polyethylenimine (UniFilter GF/B filter plate; Packard). Bound radioactivity was analyzed for Ki using nonlinear regression analysis (Activity Base, ID Business Solution, Limited), with the Kd values for [^3H]CP55,940 determined from saturation experiments.

Experiment [2] concerns the target human CB1 receptor (CNR1) (Homo sapiens (Human), UniProt P21554). Briefly: Radioligand binding assay ([3H]-CP-55,940), membranes of HEK cells expressing human CNR1. The following applies: 1.5 nM [3H]-CP-55,940, HEK cell membranes, 1 h at 30° C. On the procedure:
as §1, §2

Chain of human CB2 receptor (CNR2) (P34972 whole entry): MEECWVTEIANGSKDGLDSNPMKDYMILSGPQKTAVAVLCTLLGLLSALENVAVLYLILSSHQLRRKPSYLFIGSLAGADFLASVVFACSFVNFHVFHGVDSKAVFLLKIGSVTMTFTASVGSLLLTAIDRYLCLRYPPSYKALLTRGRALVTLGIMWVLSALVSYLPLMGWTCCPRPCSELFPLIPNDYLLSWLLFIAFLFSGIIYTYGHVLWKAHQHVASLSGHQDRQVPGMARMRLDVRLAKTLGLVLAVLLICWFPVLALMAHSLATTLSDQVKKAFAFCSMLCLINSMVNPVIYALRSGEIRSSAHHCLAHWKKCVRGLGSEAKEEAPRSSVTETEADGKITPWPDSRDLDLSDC
Chain of human CB1 receptor (CNR1) (P21554 whole entry): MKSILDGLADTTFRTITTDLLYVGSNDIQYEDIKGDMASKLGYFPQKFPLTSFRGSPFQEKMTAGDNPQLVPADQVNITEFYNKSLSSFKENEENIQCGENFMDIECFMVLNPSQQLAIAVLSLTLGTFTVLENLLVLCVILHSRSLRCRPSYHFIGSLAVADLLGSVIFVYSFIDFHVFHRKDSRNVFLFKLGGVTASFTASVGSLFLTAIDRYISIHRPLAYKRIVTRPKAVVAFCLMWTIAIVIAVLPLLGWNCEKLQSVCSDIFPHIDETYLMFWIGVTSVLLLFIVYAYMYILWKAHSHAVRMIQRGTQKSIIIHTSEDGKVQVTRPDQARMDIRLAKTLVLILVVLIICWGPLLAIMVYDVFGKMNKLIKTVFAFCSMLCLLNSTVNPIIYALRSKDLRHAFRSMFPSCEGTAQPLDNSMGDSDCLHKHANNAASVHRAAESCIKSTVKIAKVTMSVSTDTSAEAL

For orientation: Ki means a dissociation constant, usually derived from enzyme kinetics or from competition with a known ligand. Lower therefore signals a stronger hold on the target. “5-tert-butyl-7-(3,3-Difluoropyrrolidin-1-yl)-3-[[2-(pyridin-2-yldisulfanyl)phenyl]methyl]triazolo[4,5-d]pyrimidine [Example 37]”: the Ki in experiment [1] was 541 nM; in experiment [2], 2580 nM.
For `Cc1nonc1Cn1nnc2c(N3CC[C@H](S)C3)nc(C(C)(C)C)nc21` (single isomer, unassigned) [Example 10], the inhibition constant Ki in experiment [1] is 153 nM; in experiment [2], above 10000 nM.
In the same order, the values of `CC(C)(C)c1nc(N2CC[C@H](S)C2)c2nnn(Cc3ccccc3Cl)c2n1` (single isomer, unassigned) [Example 12] are 2500 nM and 2810 nM.
The matching figures for `CC(C)(C)c1nc(N2CC[C@@H](S)C2)c2nnn(Cc3ccccc3Cl)c2n1` (single isomer, unassigned) [Example 13]: 1560 nM and above 10000 nM.
The matching figures for `CC(C)(C)c1nc(N2CC[C@H](O)C2)c2nnn(Cc3ccccc3S(=O)(=O)F)c2n1` [Example 1, 2-[[5-tert-Butyl-7-[(3S)-3-hydroxypyrrolidin-1-yl]triazolo[4,5-d]pyrimidin-3-yl]methyl]benzenesulfonyl fluoride]: 16 nM and above 10000 nM.
`CC(C)(C)c1nc(N2CCC(F)(F)C2)c2nnn(Cc3ccccc3CS(=O)(=O)F)c2n1` [Example 2, (2-{[5-tert-Butyl-7-(3,3-difluoropyrrolidin-1-yl)-3H-[1,2,3]triazolo[4,5-d]pyrimidin-3-yl]methyl}phenyl)methanesulfonyl fluoride]: the Ki was 11 nM in experiment [1] and 1960 nM in experiment [2].
For the compound `CC(C)(C)c1nc(N2CC[C@H](O)C2)c2nnn(Cc3ccccc3CS(=O)(=O)F)c2n1` [Example 3, [2-({5-tert-Butyl-7-[(3S)-3-hydroxypyrrolidin-1-yl]-3H-[1,2,3]1 triazolo[4,5-d]pyrimidin-3-yl}methyl)phenyl]methanesulfonyl fluoride], the Ki in experiment [1] is 283 nM; in experiment [2], above 10000 nM.
The matching figures for `CC(C)(C)c1nc(N2CCC(F)(F)C2)c2nnn(Cc3ccccc3CN=C=S)c2n1` [Example 4, 5-tert-Butyl-7-(3,3-difluoropyrrolidin-1-yl)-3-{[2-(isothiocyanatomethyl)phenyl]methyl}-3H-[1,2,3]triazolo[4,5-d]pyrimidine]: 88 nM and 3830 nM.
The matching figures for `CC(C)(C)c1nc(N2CC[C@H](O)C2)c2nnn(Cc3ccccc3CN=C=S)c2n1` [Example 5, (3S)-1-(5-tert-Butyl-3-{[2-(isothiocyanatomethyl)phenyl]methyl}-3H-[1,2,3]triazolo[4,5-d]pyrimidin-7-yl)pyrrolidin-3-ol]: 91 nM and above 10000 nM.
For the compound `CC(C)(C)c1nc(N2CCC(F)(F)C2)c2nnn(Cc3ccccc3N=C=S)c2n1` [Example 6, 5-tert-Butyl-7-(3,3-difluoropyrrolidin-1-yl)-3-[(2-isothiocyanatophenyl)methyl]-3H-[1,2,3]triazolo[4,5-d]pyrimidine], the figures for the inhibition constant Ki in experiment [1] and in experiment [2] were 300 nM and 5360 nM, respectively.
In the same order, the values of `CC(C)(C)c1nc(N2CCC(F)(F)C2)c2nnn(Cc3ccccc3S(=O)(=O)F)c2n1` [Example 7, 2-{[5-tert-Butyl-7-(3,3-difluoropyrrolidin-1-yl)-3H-[1,2,3]triazolo[4,5-d]pyrimidin-3-yl]methyl}benzene-1-sulfonyl fluoride] are 6 nM and 931 nM.
The matching figures for `CC(C)(C)c1nc(N2CCC(S)C2)c2nnn(Cc3ccccc3Cl)c2n1` (centres unmarked) [Example 8, 1-{5-tert-Butyl-3-[(2-chlorophenyl)methyl]-3H-[1,2,3]triazolo[4,5-d]pyrimidin-7-yl}pyrrolidine-3-thiol]: 85 nM and 1470 nM.
Take `CC(C)(C)c1nc(N2CC(S)C2)c2nnn(Cc3ccccc3Cl)c2n1` [Example 9, 1-{5-tert-Butyl-3-[(2-chlorophenyl)methyl]-3H-[1,2,3]triazolo[4,5-d]pyrimidin-7-yl}azetidine-3-thiol]: the Ki in experiment [1] was 383 nM; in experiment [2], above 10000 nM.
The matching figures for `Cc1nonc1Cn1nnc2c(N3CCC(N=[N+]=[N-])C3)nc(C(C)(C)C)nc21` (centres unmarked) [Example 14, 7-(3-Azidopyrrolidin-1-yl)-5-tert-butyl-3-[(4-methyl-1,2,5-oxadiazol-3-yl)methyl]-3H-[1,2,3]triazolo[4,5-d]pyrimidine]: 137 nM and above 10000 nM.
The matching figures for `Cc1nonc1Cn1nnc2c(N3CCC(N=C=S)C3)nc(C(C)(C)C)nc21` (centres unmarked) [Example 16, 5-tert-Butyl-7-(3-isothiocyanatopyrrolidin-1-yl)-3-[(4-methyl-1,2,5-oxadiazol-3-yl)methyl]-3H-[1,2,3]triazolo[4,5-d]pyrimidine]: 426 nM and above 10000 nM.
In the same order, the values of `CC(C)(C)c1nc(N2CCC(N=[N+]=[N-])C2)c2nnn(Cc3ccccc3Cl)c2n1` (centres unmarked) [Example 17, 7-(3-Azidopyrrolidin-1-yl)-5-tert-butyl-3-[(2-chlorophenyl)methyl]-3H-[1,2,3]triazolo[4,5-d]pyrimidine] are 210 nM and 2290 nM.
On to `CSSC1CCN(c2nc(C(F)(F)c3ccccc3)nc3c2nnn3Cc2nonc2C)C1` (centres unmarked) [Example 18, 5-[Difluoro(phenyl)methyl]-7-[3-(methyldisulfanyl)pyrrolidin-1-yl]-3-[(4-methyl-1,2,5-oxadiazol-3-yl)methyl]-3H-[1,2,3]triazolo[4,5-d]pyrimidine], for which the results for the Ki in experiment [1] and in experiment [2] were 1030 nM and above 10000 nM, respectively.
In the same order, the values of `CSSC1CCN(c2nc(C(F)(F)c3ccccc3)nc3c2nnn3Cc2ccccc2Cl)C1` (centres unmarked) [Example 19, 3-[(2-Chlorophenyl)methyl]-5-[difluoro(phenyl)methyl]-7-[3-(methyldisulfanyl)pyrrolidin-1-yl]-3H-[1,2,3]triazolo[4,5-d]pyrimidine] are 1370 nM and above 10000 nM.
The matching figures for `Cc1nonc1Cn1nnc2c(N3CCC(N=[N+]=[N-])C3)nc(C(F)(F)c3ccccc3)nc21` (centres unmarked) [Example 20, 7-(3-Azidopyrrolidin-1-yl)-5-[difluoro(phenyl)methyl]-3-[(4-methyl-1,2,5-oxadiazol-3-yl)methyl]-3H-[1,2,3]triazolo[4,5-d]pyrimidine]: 1300 nM and above 10000 nM.
The matching figures for `[N-]=[N+]=NC1CCN(c2nc(C(F)(F)c3ccccc3)nc3c2nnn3Cc2ccccc2Cl)C1` (centres unmarked) [Example 21, 7-(3-Azidopyrrolidin-1-yl)-3-[(2-chlorophenyl)methyl]-5-[difluoro(phenyl)methyl]-3H-[1,2,3]triazolo[4,5-d]pyrimidine]: 729 nM and 2450 nM.
As for `FC(F)(c1ccccc1)c1nc(N2CCC(N=C=S)C2)c2nnn(Cc3ccccc3Cl)c2n1` (centres unmarked) [Example 22, 3-[(2-Chlorophenyl)methyl]-5-[difluoro(phenyl)methyl]-7-(3-isothiocyanatopyrrolidin-1-yl)-3H-[1,2,3]triazolo[4,5-d]pyrimidine], the results for the Ki in experiment [1] and in experiment [2] were 1240 nM and 6440 nM, respectively.
In the same order, the values of `Cc1nonc1Cn1nnc2c(N3CCC(N=C=S)C3)nc(C(F)(F)c3ccccc3)nc21` (centres unmarked) [Example 23, 5-[Difluoro(phenyl)methyl]-7-(3-isothiocyanatopyrrolidin-1-yl)-3-[(4-methyl-1,2,5-oxadiazol-3-yl)methyl]-3H-[1,2,3]triazolo[4,5-d]pyrimidine] are 1460 nM and 1450 nM.

The values are drawn from patent publication US10457685B2, “[1,2,3]triazolo[4,5-D]pyrimidine derivatives with affinity for the type-2 cannabinoid receptor” (Hoffmann-La Roche Inc., priority 2016, dated 2019).
